From article PMC9256669, “Monomethyl auristatin antibody and peptide drug conjugates for trimodal cancer chemo-radio-immunotherapy” (Nature Communications, 2022)
Several values for one entry are separate records, joined by “and”; a condition that tells them apart may be missing. Equal values may be shown once. Non-standard residues stand in square brackets, D forms with d. Residues, ends and D or L forms follow the SMILES beside them. *: point of attachment. Dolaproine = CO[C@@H]([C@@H]1CCCN1)[C@@H](C)C(=O)O; Dil = CC[C@H](C)[C@H](NC)[C@@H](CC(=O)O)OC; X1 = C[C@@H](N*)[C@@H](O)c1ccccc1; NMeV = CN[C@H](C(=O)O)C(C)C

Test system: B16 cells
Assay: Clonogenic survival with MMAE and 2 Gy (SF2)
Type: cell-based, murine
Design: key to SF2: fraction surviving 2 Gy relative to non-irradiated cells
Conditions: for SF2: Figure 3d, six single replicates
Description: Cells were treated with MMAE for 24 h and then irradiated with 2 Gy. […] Following IR, cells were counted, re-plated at varying cell numbers in drug free media. 10–14 days after initial seeding formed colonies were methanol fixed, stained with crystal violet, and counted. Surviving fraction at 2 Gy (SF2) was calculated as the fraction of cells surviving 2 Gy compared to non-irradiated cells.

In the case of CC[C@H](C)[C@@H]([C@@H](CC(=O)N1CCC[C@H]1[C@H](OC)[C@@H](C)C(=O)N[C@H](C)[C@@H](O)c1ccccc1)OC)N(C)C(=O)[C@@H](NC(=O)[C@@H](NC)C(C)C)C(C)C [MMAE, monomethyl auristatin E] (H-[NMeV]V[Dil][Dolaproine]-X1), the SF2 (MMAE 1 nM with 2 Gy) was 0.93 and 0.7 and 0.72 and 0.83 and 0.98, the SF2 (MMAE 2 nM with 2 Gy) was 0.57 and 0.61 and 0.48 and 0.63 and 0.74 and the SF2 (MMAE 3 nM with 2 Gy) was 0.68 and 0.71 and 0.65 and 0.5 and 0.56. For the same molecule, the “radiosensitization, clonogenic cell death” value (murine tumor cells, single nanomolar doses of MMAE, 2 Gy) was “sensitized murine tumor cells to IR-mediated clonogenic cell death”.
